What all share (format): biochemical
Settings in all cases: ADP-Glo SIK kinase assay

One assay concerns the target T1, SIK2 (Homo sapiens, UniProt Q9H0K1).
T1 construct: purchased ThermoFisher Scientific PV4792
As to the kind of experiment: ADP-Glo kinase assay, SIK2. In short, it runs like this: (§1)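 Wells with 1% DMSO or 10 μM staurosporine (final) define the control window. The kinase reaction with substrate and ATP runs 120 min at RT, followed by ADP-Glo detection: ATP depletion (40 min) and ADP-derived luminescence (30 min).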
For orientation: ADP-Glo turns the ADP formed in a reaction into a luminescent signal.

Another assay deals with T2, SIK3 (Homo sapiens, UniProt Q9Y2K2).
T2 construct: purchased SignalChem S12-11G-100
As to the kind of experiment: ADP-Glo kinase assay, SIK3. In short, it runs like this:
as §1

The next assay concerns the target T3, SIK1 (Homo sapiens, UniProt P57059).
T3 construct: purchased Carna Biosciences 02-131
Kind of assay: ADP-Glo kinase assay, SIK1. In short, it runs like this:
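ADP-Glo, RT throughout. Enz/substrate + ATP, 120 min; ADP-Glo reagent 40 min (ATP depletion); detection reagent 30 min; luminescence read. Neg ctrl 1% DMSO, pos ctrl 10 μM staurosporine, final concs.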

A word on the IC50: it is the concentration needed to halve the response being measured.

T2 sequence (Q9Y2K2 whole entry): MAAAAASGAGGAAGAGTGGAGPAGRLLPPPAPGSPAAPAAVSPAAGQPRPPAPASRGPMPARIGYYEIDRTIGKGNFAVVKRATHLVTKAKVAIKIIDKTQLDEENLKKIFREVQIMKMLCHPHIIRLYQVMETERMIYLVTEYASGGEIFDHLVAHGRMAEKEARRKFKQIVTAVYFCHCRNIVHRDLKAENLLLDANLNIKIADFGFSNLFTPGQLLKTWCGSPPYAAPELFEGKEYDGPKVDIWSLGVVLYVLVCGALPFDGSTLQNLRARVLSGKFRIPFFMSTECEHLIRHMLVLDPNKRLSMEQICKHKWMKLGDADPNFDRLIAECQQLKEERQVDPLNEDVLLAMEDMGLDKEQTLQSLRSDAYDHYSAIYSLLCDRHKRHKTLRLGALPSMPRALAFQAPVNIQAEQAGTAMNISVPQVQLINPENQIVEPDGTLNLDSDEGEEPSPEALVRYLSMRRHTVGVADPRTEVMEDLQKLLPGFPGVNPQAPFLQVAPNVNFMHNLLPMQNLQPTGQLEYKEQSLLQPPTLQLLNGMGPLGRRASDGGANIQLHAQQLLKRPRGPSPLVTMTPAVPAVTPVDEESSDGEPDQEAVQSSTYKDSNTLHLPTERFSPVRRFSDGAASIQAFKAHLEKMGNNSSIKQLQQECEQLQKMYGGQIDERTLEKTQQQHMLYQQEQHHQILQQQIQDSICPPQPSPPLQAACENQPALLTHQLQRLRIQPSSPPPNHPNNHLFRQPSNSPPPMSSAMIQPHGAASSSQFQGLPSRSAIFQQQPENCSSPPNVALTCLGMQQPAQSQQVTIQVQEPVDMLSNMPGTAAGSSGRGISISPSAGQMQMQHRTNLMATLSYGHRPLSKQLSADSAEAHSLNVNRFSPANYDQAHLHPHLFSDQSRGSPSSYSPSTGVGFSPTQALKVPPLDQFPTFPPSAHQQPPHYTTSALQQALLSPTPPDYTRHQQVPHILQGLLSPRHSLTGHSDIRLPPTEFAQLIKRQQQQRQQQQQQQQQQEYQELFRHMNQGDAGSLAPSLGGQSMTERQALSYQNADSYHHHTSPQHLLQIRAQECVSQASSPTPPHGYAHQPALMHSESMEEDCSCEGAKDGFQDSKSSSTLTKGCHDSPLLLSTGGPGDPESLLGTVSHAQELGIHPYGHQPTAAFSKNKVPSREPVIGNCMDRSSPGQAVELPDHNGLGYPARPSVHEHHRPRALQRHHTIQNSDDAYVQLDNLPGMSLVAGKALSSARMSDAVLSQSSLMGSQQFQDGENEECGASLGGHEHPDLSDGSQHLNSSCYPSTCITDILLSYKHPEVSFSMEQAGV
T1 sequence (Q9H0K1 whole entry): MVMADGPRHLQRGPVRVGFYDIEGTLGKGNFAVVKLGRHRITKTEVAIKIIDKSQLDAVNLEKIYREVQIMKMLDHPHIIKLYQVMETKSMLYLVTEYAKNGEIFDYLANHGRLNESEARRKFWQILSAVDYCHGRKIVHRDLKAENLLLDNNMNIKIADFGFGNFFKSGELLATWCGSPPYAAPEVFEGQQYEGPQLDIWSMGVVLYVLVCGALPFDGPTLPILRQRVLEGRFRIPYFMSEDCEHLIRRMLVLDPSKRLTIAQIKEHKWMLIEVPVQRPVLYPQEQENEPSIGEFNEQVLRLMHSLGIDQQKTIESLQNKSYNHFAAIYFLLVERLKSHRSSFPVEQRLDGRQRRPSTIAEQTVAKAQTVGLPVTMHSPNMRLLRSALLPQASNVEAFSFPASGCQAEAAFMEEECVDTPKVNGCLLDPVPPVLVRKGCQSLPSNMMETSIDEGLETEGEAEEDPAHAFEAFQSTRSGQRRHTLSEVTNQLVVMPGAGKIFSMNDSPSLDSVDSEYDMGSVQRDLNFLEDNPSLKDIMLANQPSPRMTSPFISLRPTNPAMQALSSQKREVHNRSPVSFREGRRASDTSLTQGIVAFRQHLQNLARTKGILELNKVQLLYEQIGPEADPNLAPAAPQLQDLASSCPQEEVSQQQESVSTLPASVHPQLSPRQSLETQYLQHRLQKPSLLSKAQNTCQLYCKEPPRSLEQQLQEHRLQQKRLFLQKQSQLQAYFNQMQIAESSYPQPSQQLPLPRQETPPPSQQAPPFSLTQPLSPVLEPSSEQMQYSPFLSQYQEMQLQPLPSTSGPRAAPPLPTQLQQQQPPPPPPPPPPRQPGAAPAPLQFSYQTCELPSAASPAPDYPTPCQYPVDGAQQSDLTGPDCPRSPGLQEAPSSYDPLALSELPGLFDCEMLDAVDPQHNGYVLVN
T3 sequence (P57059 whole entry): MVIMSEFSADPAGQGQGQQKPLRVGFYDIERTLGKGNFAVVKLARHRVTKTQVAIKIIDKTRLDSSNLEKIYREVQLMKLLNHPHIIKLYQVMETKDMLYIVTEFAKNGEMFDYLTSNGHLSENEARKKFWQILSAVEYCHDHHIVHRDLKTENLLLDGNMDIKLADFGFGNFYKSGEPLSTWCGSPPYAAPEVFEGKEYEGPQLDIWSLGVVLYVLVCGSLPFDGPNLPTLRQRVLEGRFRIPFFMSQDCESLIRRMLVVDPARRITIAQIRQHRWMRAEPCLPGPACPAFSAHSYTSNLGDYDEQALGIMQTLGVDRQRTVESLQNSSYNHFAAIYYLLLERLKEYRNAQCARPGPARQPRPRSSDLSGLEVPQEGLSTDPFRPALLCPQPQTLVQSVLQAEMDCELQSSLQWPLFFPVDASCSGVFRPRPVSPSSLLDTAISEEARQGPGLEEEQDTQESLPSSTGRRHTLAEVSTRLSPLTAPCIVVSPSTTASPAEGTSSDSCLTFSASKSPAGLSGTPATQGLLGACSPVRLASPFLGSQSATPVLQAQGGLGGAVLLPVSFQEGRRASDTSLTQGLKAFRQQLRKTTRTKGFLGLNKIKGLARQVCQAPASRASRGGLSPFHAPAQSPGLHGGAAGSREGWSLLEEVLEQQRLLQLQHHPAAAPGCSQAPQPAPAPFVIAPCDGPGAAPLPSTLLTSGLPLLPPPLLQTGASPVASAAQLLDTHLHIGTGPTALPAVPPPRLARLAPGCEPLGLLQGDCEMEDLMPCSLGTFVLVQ

Consider `COc1cc(-c2cnc3cc(OC4CCN(C)C4)ccn23)cc(OC(F)F)c1C(=O)NC1CC1` (stereo not drawn) [compound 15, N-cyclopropyl-2-(difluoromethoxy)-6-methoxy-4-[7-(1-methylpyrrolidin-3-yl)oxyimidazo[1,2-a]pyridin-3-yl]benzamide], for which the IC50 on SIK2 is 10 to 100 nM; against SIK3, 10 to 100 nM; on SIK1, greater than 500 nM.

As to `COc1cc(-c2cnc3cc(OCc4cncn4C)ccn23)cc(OC(F)F)c1C(=O)NC1CC1` [compound 19, N-cyclopropyl-2-(difluoromethoxy)-6-methoxy-4-[7-[(3-methylimidazol-4-yl)methoxy]imidazo[1,2-a]pyridin-3-yl]benzamide], the IC50 is 0.01 to 10 nM against SIK2, 0.01 to 10 nM against SIK3 and 10 to 100 nM against SIK1.

Take `COc1cc(-c2cnc3cc(OCCN4CCCC4)ccn23)cc(OC(F)F)c1C(=O)NC1CC1` [compound 20, N-cyclopropyl-2-(difluoromethoxy)-6-methoxy-4-[7-(2-pyrrolidin-1-ylethoxy)imidazo[1,2-a]pyridin-3-yl]benzamide]: the IC50 was 0.01 to 10 nM on SIK2, 0.01 to 10 nM on SIK3 and 10 to 100 nM at SIK1.

`COc1cc(-c2cnc3cc(OCCN4CCS(=O)(=O)CC4)ccn23)cc(OC(F)F)c1C(=O)NC1CC1` [compound 22, N-cyclopropyl-2-(difluoromethoxy)-4-[7-[2-(1,1-dioxo-1,4-thiazinan-4-yl)ethoxy]imidazo[1,2-a]pyridin-3-yl]-6-methoxy-benzamide]: the IC50 at SIK2 was in the range of 0.01 to 10 nM; against SIK3, 0.01 to 10 nM; at SIK1 it was 10 to 100 nM.

For `COc1cc(-c2cnc3cc(OCCC4CCCCN4C)ccn23)cc(OC(F)F)c1C(=O)NC1CC1` (stereo not drawn) [compound 24, N-cyclopropyl-2-(difluoromethoxy)-6-methoxy-4-[7-[2-(1-methyl-2-piperidyl)ethoxy]imidazo [1,2-a]pyridin-3-yl]benzamide], the IC50 against SIK2, at SIK3 and against SIK1 was 0.01 to 10 nM in each case.

Take `COc1cc(-c2cnc3cc(OCC4CCN(C)CC4)ccn23)cc(OC(F)F)c1C(=O)NC1CC1` [compound 25, N-cyclopropyl-2-(difluoromethoxy)-6-methoxy-4-[7-[(1-methyl-4-piperidyl)methoxy]imidazo[1,2-a]pyridin-3-yl]benzamide]: the IC50 on SIK2, against SIK3 and against SIK1 was 0.01 to 10 nM throughout.

With `COc1cc(-c2cnc3cc(OCC4CC(=O)N(C)C4)ccn23)cc(OC(F)F)c1C(=O)NC1CC1` (stereo not drawn) [compound 26, N-cyclopropyl-2-(difluoromethoxy)-6-methoxy-4-[7-[(1-methyl-5-oxo-pyrrolidin-3-yl)methoxy]imidazo[1,2-a]pyridin-3-yl]benzamide], the values for the IC50 against SIK2, against SIK3 and on SIK1 were 0.01 to 10 nM, 0.01 to 10 nM and 10 to 100 nM, respectively.

For `COc1cc(-c2cnc3cc(OCCNC(C)=O)ccn23)cc(OC(F)F)c1C(=O)NC1CC1` [compound 27, 4-[7-(2-acetamidoethoxy)imidazo [1,2-a]pyridin-3-yl]-N-cyclopropyl-2-(difluoromethoxy)-6-methoxy-benzamide], the IC50 against SIK2, at SIK3 and at SIK1 was 0.01 to 10 nM throughout.

Take `COc1cc(-c2cnc3cc(OCC4CCCN4C)ccn23)cc(OC(F)F)c1C(=O)NC1CC1` (stereo not drawn) [compound 28, N-cyclopropyl-2-(difluoromethoxy)-6-methoxy-4-[7-[(1-methylpyrrolidin-2-yl)methoxy]imidazo[1,2-a]pyridin-3-yl]benzamide]: the half-inhibitory concentration (IC50) on SIK2 lay in the range of 0.01 to 10 nM; against SIK3, 0.01 to 10 nM; at SIK1, 100 to 500 nM.

`COc1cc(-c2cnc3cc(OC4CN(C)C4)ccn23)cc(OC(F)F)c1C(=O)NC1CC1` [compound 29, N-cyclopropyl-2-(difluoromethoxy)-6-methoxy-4-[7-(1-methylazetidin-3-yl)oxyimidazo[1,2-a]pyridin-3-yl]benzamide]: the IC50 on SIK2 is 10 to 100 nM; against SIK3, 10 to 100 nM; against SIK1, 100 to 500 nM.

`COc1cc(-c2cnc3cc(OCCO)ccn23)cc(OC(F)F)c1C(=O)NC1CC1` [compound 30, N-cyclopropyl-2-(difluoromethoxy)-4-[7-(2-hydroxyethoxy)imidazo [1,2-a]pyridin-3-yl]-6-methoxy-benzamide]: the IC50 was in the range of 0.01 to 10 nM on SIK2, 0.01 to 10 nM at SIK3 and 10 to 100 nM on SIK1.

For the molecule `COc1cc(-c2cnc3cc(OCCC#N)ccn23)cc(OC(F)F)c1C(=O)NC1CC1` [compound 31, 4-[7-(2-cyanoethoxy)imidazo[1,2-a]pyridin-3-yl]-N-cyclopropyl-2-(difluoromethoxy)-6-methoxy-benzamide], the IC50 at SIK2, against SIK3 and against SIK1 was greater than 500 nM throughout.

With `COc1cc(-c2cnc3cc(OCc4ncco4)ccn23)cc(OC(F)F)c1C(=O)NC1CC1` [compound 32, N-cyclopropyl-2-(difluoromethoxy)-6-methoxy-4-[7-(oxazol-2-ylmethoxy)imidazo[1,2-a]pyridin-3-yl]benzamide], the IC50 on SIK2 was in the range of 0.01 to 10 nM; on SIK3, 0.01 to 10 nM; on SIK1, 10 to 100 nM.

For the molecule `COc1cc(-c2cnc3cc(OCC(C)(C)C#N)ccn23)cc(OC(F)F)c1C(=O)NC1CC1` [compound 34, 4-[7-(2-cyano-2-methyl-propoxy)imidazo[1,2-a]pyridin-3-yl]-N-cyclopropyl-2-(difluoromethoxy)-6-methoxy-benzamide], the IC50 fell in the range of 0.01 to 10 nM against SIK2, 0.01 to 10 nM at SIK3 and 10 to 100 nM on SIK1.

`COc1cc(-c2cnc3cc(OCCF)ccn23)cc(OC(F)F)c1C(=O)NC1CC1` [compound 36, N-cyclopropyl-2-(difluoromethoxy)-4-[7-(2-fluoroethoxy)imidazo[1,2-a]pyridin-3-yl]-6-methoxy-benzamide]: the IC50 against SIK2 fell in the range of 0.01 to 10 nM; at SIK3, 0.01 to 10 nM; on SIK1, 10 to 100 nM.

In the case of `COCCOCCOc1ccn2c(-c3cc(OC)c(C(=O)NC4CC4)c(OC(F)F)c3)cnc2c1` [compound 38, N-cyclopropyl-2-(difluoromethoxy)-6-methoxy-4-[7-[2-(2-methoxyethoxy)ethoxy]imidazo[1,2-a]pyridin-3-yl]benzamide], the IC50 on SIK2 was in the range of 0.01 to 10 nM; against SIK3, 0.01 to 10 nM; against SIK1 it was 10 to 100 nM.

With `COc1cc(-c2cnc3cc(OCC4CC4(F)F)ccn23)cc(OC(F)F)c1C(=O)NC1CC1` (stereo not drawn) [compound 42, N-cyclopropyl-4-[7-[(2,2-difluorocyclopropyl)methoxy]imidazo[1,2-a]pyridin-3-yl]-2-(difluoromethoxy)-6-methoxy-benzamide], the IC50 on SIK2, against SIK3 and against SIK1 was 0.01 to 10 nM each time.

Regarding `COc1cc(-c2cnc3cc(OCc4cccnc4)ccn23)cc(OC(F)F)c1C(=O)NC1CC1` [compound 43, N-cyclopropyl-2-(difluoromethoxy)-6-methoxy-4-[7-(3-pyridylmethoxy)imidazo [1,2-a]pyridin-3-yl]benzamide], the IC50 lay in the range of 0.01 to 10 nM on SIK2, 0.01 to 10 nM on SIK3 and 10 to 100 nM at SIK1.

Turning to `COc1cc(-c2cnc3cc(OCc4cscn4)ccn23)cc(OC(F)F)c1C(=O)NC1CC1` [compound 46, N-cyclopropyl-2-(difluoromethoxy)-6-methoxy-4-[7-(thiazol-4-ylmethoxy)imidazo[1,2-a]pyridin-3-yl]benzamide], the IC50 against SIK2 is 0.01 to 10 nM; against SIK3, 0.01 to 10 nM; against SIK1 it was 10 to 100 nM.

As to `COc1cc(-c2cnc3cc(OCc4nccs4)ccn23)cc(OC(F)F)c1C(=O)NC1CC1` [compound 47, N-cyclopropyl-2-(difluoromethoxy)-6-methoxy-4-[7-(thiazol-2-ylmethoxy)imidazo[1,2-a]pyridin-3-yl]benzamide], the results for the IC50 against SIK2, on SIK3 and against SIK1 were 0.01 to 10 nM, 0.01 to 10 nM and 10 to 100 nM, respectively.

With `COc1cc(-c2cnc3cc(OCC4CCOCC4)ccn23)cc(OC(F)F)c1C(=O)NC1CC1` [compound 49, N-cyclopropyl-2-(difluoromethoxy)-6-methoxy-4-[7-(tetrahydropyran-4-ylmethoxy)imidazo[1,2-a]pyridin-3-yl] benzamide], the IC50 against SIK2, against SIK3 and at SIK1 was 0.01 to 10 nM throughout.

As for `COc1cc(-c2cnc3cc(OCCN(C)C)ccn23)cc(F)c1C(=O)NC1CC1` [compound 51, N-cyclopropyl-4-[7-[2-(dimethylamino)ethoxy]imidazo[1,2-a]pyridin-3-yl]-2-fluoro-6-methoxy-benzamide], the IC50 against SIK2 is 10 to 100 nM; against SIK3, 10 to 100 nM; at SIK1 it was greater than 500 nM.

Regarding `COc1cc(-c2cnc3cc(OCC4CC(F)(F)C4)ccn23)cc(OC(F)F)c1C(=O)NC1CC1` [compound 52, N-cyclopropyl-4-[7-[(3,3-difluorocyclobutyl)methoxy]imidazo[1,2-a]pyridin-3-yl]-2-(difluoromethoxy)-6-methoxy-benzamide], the IC50 at SIK2, on SIK3 and on SIK1 was 0.01 to 10 nM throughout.

Take `CCN1CCc2cc(-c3cnc4cc(OCCN(C)C)ccn34)cc(OC)c2C1=O` [compound 53, 6-[7-[2-(dimethylamino)ethoxy]imidazo[1,2-a]pyridin-3-yl]-2-ethyl-8-methoxy-3,4-dihydroisoquinolin-1-one]: the results for the IC50 on SIK2, at SIK3 and on SIK1 were 10 to 100 nM, 10 to 100 nM and greater than 500 nM, respectively.

The values are drawn from US12264156B2, “Compounds and pharmaceutical compositions thereof for the treatment of diseases” (GALAPAGOS NV, priority 2018, dated 2025).
